Data set [1] deals with TTR tetramer (recombinant human transthyretin WT, T119M, V30M). The format is binding. The settings on record: probe solution 10 μM; recombinant TTR 100 ng/mL; FIG. 14A-D.
Data set [2] concerns the target T1, TTR tetramer (recombinant human transthyretin WT, T119M, V30M) (Homo sapiens, UniProt P02766, T139M).
T1 construct: purchased AlexoTech T-500-10 (WT); T-515-10 (T119M); T-505-10 (V30M)
The format is binding. To be noted: probe solution 0.3 μM immobilized; FIG. 16A.

For data set [3], the target named is T2, TTR tetramer (recombinant human transthyretin WT, T119M, V30M) (Homo sapiens, UniProt P02766, V50M).
T2 construct: purchased AlexoTech T-500-10 (WT); T-515-10 (T119M); T-505-10 (V30M)
The format is binding. The settings on record: probe solution 0.3 μM immobilized; FIG. 16A.

Data set [4] deals with TTR tetramer (recombinant human transthyretin WT, T119M, V30M). Type of data set: binding. The settings on record: probe solution 0.3 μM immobilized on solid phase; recombinant TTR 100 ng/mL; FIG. 16A-B.
Data set [5] concerns the target T1, TTR tetramer (recombinant human transthyretin WT, T119M, V30M). Type of data set: binding. The settings on record: probe solution 0.2 μM; FIG. 18A.
Data set [6] deals with T2, TTR tetramer (recombinant human transthyretin WT, T119M, V30M). Type of data set: binding. The settings on record: probe solution 0.2 μM; FIG. 18A.
Data set [7] concerns TTR tetramer (recombinant human transthyretin WT, T119M, V30M). Type of data set: binding. To be noted: probe solution 0.2 μM mixed with sample; FIG. 18A-B.
Data set [8] deals with T1, TTR tetramer (recombinant human transthyretin WT, T119M, V30M). The format is binding. To be noted: probe solution 10 μM; recombinant TTR 100 ng/mL; FIG. 14A.
Data set [9] addresses T2, TTR tetramer (recombinant human transthyretin WT, T119M, V30M). The format is binding. The settings on record: probe solution 10 μM; recombinant TTR 100 ng/mL; FIG. 14A.
Data set [10] is described as follows: Comparative Example 2: 48-hour urea treatment, then sandwich ELISA (TTR 4mer %). Type of data set: physicochemical, human. The settings on record: urea 7.2 M, 25° C., Dunnett's test, FIG. 24A. On the procedure:
The recombinant TTR of the wild-type (WT), the stabilized variant (Ti19M), and the destabilized variant (V30M) as in Example 1 were used as the recombinant TTR. These recombinant TTRs were diluted with 1% BSA/PBS, to prepare a sample containing 16 µg/mL of each recombinant TTR. Sera obtained from patients with atrial fibrillation (n=26), wild-type ATTR patients (n=18), and ATTR patients with destabilized mutation (A36D) (n=2) were diluted 10 times with 1% BSA/PBS, to prepare various serum samples. A calibrator was prepared in the same manner as in Comparative Example 1.
As the detection antibody and the labeling substance, a biotin-labeled antibody solution and an ALP solution were prepared in the same manner as in Comparative Example 1. An anti-TTR antibody solution was prepared as the capture antibody in the same manner as in Comparative Example 1. […]
Each sample was measured by sandwich ELISA in the same manner as in (3.2) of Comparative Example 1. The calibrator was measured in the same manner. A calibration curve was prepared from the measured values of the calibrators, and the TTR level of each sample was acquired with use of the calibration curve. TTR 4 mer % of the sample after the urea treatment was calculated from the following calculation formula, using the TTR levels of the sample after the urea treatment and the sample without the urea treatment. […]

Where two headings read alike, the source gives them in different places.

In the case of `O=C(CCCCC1SCC2NC(=O)NC21)NCCOCCOCCOCCOCCOCCOCCOCCOCCC(=O)Nc1ccc(/C=C/c2cc(Br)c(O)c(Br)c2)cc1` (stereo not shown) [Probe C5, Biotin-PEG8-Stilbene Derivative], the “chemiluminescence signal measured values of WT, T119M and V30M samples versus blank” value in [1] was “results similar to those of FIG. 14 A”; in [4] it was “higher than the signal measured value of the blank”; in [7] it was “higher than the signal measured value of the blank”. Besides, the “signal measured value of T119M sample relative to WT sample” value in [2] and in data set [5] was “higher than the signal measured value of WT” each time. The “signal measured value of V30M sample relative to WT sample” value in data set [3] and in data set [6] was “lower than the signal measured value of WT” in each case.

Take Biotin-PEG8-Thyroxine [Probe C1]: the “signal measured value of T119M sample relative to WT sample” value in data set [8] is “higher than the signal measured value of WT”. For the same compound, in [9], the “signal measured value of V30M sample relative to WT sample” value is “lower than the signal measured value of WT”. The “chemiluminescence signal measured values of WT, T119M and V30M samples versus blank” value in data set [1] is reported as “higher than the signal measured value of the blank”.

In the case of biotin-PEG12-thyroxine [Probe C2], the “chemiluminescence signal measured values of WT, T119M and V30M samples versus blank” value in data set [1] was “results similar to those of FIG. 14 A”.

With “transthyretin (T119M) human, recombinant [Probe T119M]”, the “TTR 4mer % relative to the sample containing wild-type TTR” value in [10] is “significantly higher”.

As for transthyretin (V30M) human [Probe V30M], in data set [10], the “TTR 4mer % relative to the sample containing wild-type TTR” value is reported as “significantly lower”.
